In patent publication US10856562B2, “Flavor composition and edible compositions containing same” (MARS, INCORPORATED, priority 2013, dated 2020):
Square brackets hold non-standard residues; d marks the D form. Ends that are not written are not given here. pGlu = O=C1CC[C@@H](C(=O)O)N1

Test system: panelists
Assay: Attribute perception scores of flavor enhancers in solution (Example 6)
Type: in vivo, human
Set-up: key to Metallic / Numbing / Atringent / Salt / Sweet / Sour / Bitter / Umami / Sour, mean evaluation score in solution / Numbing, mean evaluation score in solution / Astringent / Umami FF: 15-point intensity scale, 0 = none, 15 = very strong
Conditions: for Mineral/Flinty aromatic in solution as the concentration increases / Salt perception level in solution as the concentration increases / Umami aromatic in solution as the concentration increases / Umami feeling factor in solution as the concentration increases: 1.0 to 100 ppb; for Astringent / Bitter / Flinty/Mineral / Metallic / Numbing / Salt / Sour / Sweet / Umami / Umami FF / Atringent / Mineral/Flinty / Umami/brothy: solution
Experimental: Descriptive attributes (e.g., taste, flavor and chemical feeling factors) of three use levels of pGlu-Cys (FE-35), pGlu-Cys-Gly (FE-36), pGlu-Cys-Cys (FE-37), pGlu-Cys-Val (FE-38) and pGlu-Val-Cys (UE-30) flavor composition peptides were determined. The three use levels were as follows: 1.0 ppb, 10.0 ppb and 100.0 ppb.
Data was collected for the attributes of the product in-mouth for the use levels according to the following protocol: • The samples were analyzed for flavor by six to nine members of a panel, trained and experienced in flavor evaluation using the Spectrum™ method. Samples were evaluated across multiple panel sessions. • The strength of each attribute was rated on a 15-point scale, where 0=none and 15=very strong. • This scale incorporates the ability to use tenths of a point and therefore has the potential of 150 scale differentiations. • The scale may be expanded beyond 15 points to include extreme ratings if necessary.
A summary of the concentrations of NaCl, water and flavor composition peptides in the solution samples is described in table 24.
The panelists evaluated each sample for the attributes described by table 25.

[1] = 10.0 ppb, mean evaluation score
[2] = 100.0 ppb, mean evaluation score
[3] = Concentration 1, MAX, 15-point scale
[4] = Concentration 1, MEAN, 15-point scale
[5] = Concentration 1, MIN, 15-point scale
[6] = Concentration 10, MAX, 15-point scale
[7] = Concentration 10, MEAN, 15-point scale
[8] = Concentration 10, MIN, 15-point scale
[9] = Concentration 100, MAX, 15-point scale
[10] = Concentration 100, MEAN, 15-point scale
[11] = Concentration 100, MIN, 15-point scale

Substance: [pGlu]-Cys [FE-35]
- Mineral/Flinty aromatic in solution as the concentration increases: show no distinct pattern
- Salt perception level in solution as the concentration increases: show no distinct pattern
- Umami aromatic in solution as the concentration increases: decreases slightly
- Umami feeling factor in solution as the concentration increases: shows no distinct pattern
- Astringent (1.0 ppb, mean evaluation score): 0.0
- Bitter (1.0 ppb, mean evaluation score): 0.1
- Flinty/Mineral (1.0 ppb, mean evaluation score): 0.9
- Metallic (1.0 ppb, mean evaluation score): 0.0
- Numbing (1.0 ppb, mean evaluation score): 0.0
- Salt (1.0 ppb, mean evaluation score): 1.8
- Sour (1.0 ppb, mean evaluation score): 0.0
- Sweet (1.0 ppb, mean evaluation score): 0.3
- Umami (1.0 ppb, mean evaluation score): 1.5
- Umami FF (1.0 ppb, mean evaluation score): 1.5
- Astringent [1]: 0.0
- Bitter [1]: 0.0
- Flinty/Mineral [1]: 0.9
- Metallic [1]: 0.3
- Numbing [1]: 0.0
- Salt [1]: 2.6
- Sour [1]: 0.0
- Sweet [1]: 0.3
- Umami [1]: 0.8
- Umami FF [1]: 1.1
- Astringent [2]: 0.0
- Bitter [2]: 0.0
- Flinty/Mineral [2]: 0.7
- Metallic [2]: 0.3
- Numbing [2]: 0.0
- Salt [2]: 2.0
- Sour [2]: 0.0
- Sweet [2]: 0.2
- Umami [2]: 0.2
- Umami FF [2]: 1.1
- Atringent [3]: 0.0
- Bitter [3]: 0.5
- Metallic [3]: 0.0
- Mineral/Flinty [3]: 1.0
- Numbing [3]: 0.0
- Salt [3]: 2.0
- Sour [3]: 0.0
- Sweet [3]: 1.0
- Umami [3]: 2.0
- Umami/brothy [3]: 2.0
- Atringent [4]: 0.0
- Bitter [4]: 0.1
- Metallic [4]: 0.0
- Mineral/Flinty [4]: 0.9
- Numbing [4]: 0.0
- Salt [4]: 1.8
- Sour [4]: 0.0
- Sweet [4]: 0.3
- Umami [4]: 1.5
- Umami/brothy [4]: 1.5
- Atringent [5]: 0.0
- Bitter [5]: 0.0
- Metallic [5]: 0.0
- Mineral/Flinty [5]: 0.5
- Numbing [5]: 0.0
- Salt [5]: 1.5
- Sour [5]: 0.0
- Sweet [5]: 0.0
- Umami [5]: 1.0
- Umami/brothy [5]: 1.0
- Atringent [6]: 0.0
- Bitter [6]: 0.0
- Metallic [6]: 2.0
- Mineral/Flinty [6]: 1.2
- Numbing [6]: 0.0
- Salt [6]: 3.0
- Sour [6]: 0.0
- Sweet [6]: 1.0
- Umami [6]: 2.0
- Umami/brothy [6]: 2.0
- Atringent [7]: 0.0
- Bitter [7]: 0.0
- Metallic [7]: 0.3
- Mineral/Flinty [7]: 0.9
- Numbing [7]: 0.0
- Salt [7]: 2.6
- Sour [7]: 0.0
- Sweet [7]: 0.3
- Umami [7]: 1.1
- Umami/brothy [7]: 0.8
- Atringent [8]: 0.0
- Bitter [8]: 0.0
- Metallic [8]: 0.0
- Mineral/Flinty [8]: 0.0
- Numbing [8]: 0.0
- Salt [8]: 2.2
- Sour [8]: 0.0
- Sweet [8]: 0.0
- Umami [8]: 0.0
- Umami/brothy [8]: 0.0
- Atringent [9]: 0.0
- Bitter [9]: 0.0
- Metallic [9]: 1.0
- Mineral/Flinty [9]: 1.5
- Numbing [9]: 0.0
- Salt [9]: 2.5
- Sour [9]: 0.0
- Sweet [9]: 1.0
- Umami [9]: 1.5
- Umami/brothy [9]: 1.0
- Atringent [10]: 0.0
- Bitter [10]: 0.0
- Metallic [10]: 0.3
- Mineral/Flinty [10]: 0.7
- Numbing [10]: 0.0
- Salt [10]: 2.0
- Sour [10]: 0.0
- Sweet [10]: 0.2
- Umami [10]: 1.1
- Umami/brothy [10]: 0.2
- Atringent [11]: 0.0
- Bitter [11]: 0.0
- Metallic [11]: 0.0
- Mineral/Flinty [11]: 0.0
- Numbing [11]: 0.0
- Salt [11]: 1.5
- Sour [11]: 0.0
- Sweet [11]: 0.0
- Umami [11]: 0.0
- Umami/brothy [11]: 0.0

Substance: [pGlu]-Cys-Cys (cysteine pairing not given here) [FE-37]
- Mineral/Flinty aromatic in solution as the concentration increases: increase very slightly
- Salt perception level in solution as the concentration increases: shows no distinct pattern
- Umami aromatic in solution as the concentration increases: increase very slightly
- Umami feeling factor in solution as the concentration increases: increases very slightly by 100 ppb
- Umami feeling factor in solution as the concentration increases (listed as FE 37): increase very slightly
- Astringent (1.0 ppb, mean evaluation score): 0.0
- Bitter (1.0 ppb, mean evaluation score): 0.0
- Flinty/Mineral (1.0 ppb, mean evaluation score): 0.7
- Metallic (1.0 ppb, mean evaluation score): 0.0
- Numbing (1.0 ppb, mean evaluation score): 0.0
- Salt (1.0 ppb, mean evaluation score): 2.4
- Sour (1.0 ppb, mean evaluation score): 0.0
- Sweet (1.0 ppb, mean evaluation score): 0.0
- Umami (1.0 ppb, mean evaluation score): 0.1
- Umami FF (1.0 ppb, mean evaluation score): 1.3
- Astringent [1]: 0.0
- Bitter [1]: 0.0
- Flinty/Mineral [1]: 0.8
- Metallic [1]: 0.0
- Numbing [1]: 0.0
- Salt [1]: 3.0
- Sour [1]: 0.0
- Sweet [1]: 0.1
- Umami [1]: 0.2
- Umami FF [1]: 1.3
- Astringent [2]: 0.0
- Bitter [2]: 0.0
- Flinty/Mineral [2]: 0.9
- Metallic [2]: 0.1
- Numbing [2]: 0.0
- Salt [2]: 2.8
- Sour [2]: 0.0
- Sweet [2]: 0.2
- Umami [2]: 0.5
- Umami FF [2]: 1.6
- Atringent [3]: 0.0
- Bitter [3]: 00
- Metallic [3]: 0.0
- Mineral/Flinty [3]: 1.5
- Numbing [3]: 0.0
- Salt [3]: 2.8
- Sour [3]: 0.0
- Sweet [3]: 0.0
- Umami [3]: 2.0
- Umami/brothy [3]: 0.8
- Atringent [4]: 0.0
- Bitter [4]: 0.0
- Metallic [4]: 0.0
- Mineral/Flinty [4]: 0.7
- Numbing [4]: 0.0
- Salt [4]: 2.4
- Sour [4]: 0.0
- Sweet [4]: 0.0
- Umami [4]: 1.3
- Umami/brothy [4]: 0.1
- Atringent [5]: 0.0
- Bitter [5]: 0.0
- Metallic [5]: 0.0
- Mineral/Flinty [5]: 0.0
- Numbing [5]: 0.0
- Salt [5]: 2.0
- Sour [5]: 0.0
- Sweet [5]: 0.0
- Umami [5]: 0.0
- Umami/brothy [5]: 0.0
- Atringent [6]: 0.0
- Bitter [6]: 0.0
- Metallic [6]: 0.0
- Mineral/Flinty [6]: 1.0
- Numbing [6]: 0.0
- Salt [6]: 3.5
- Sour [6]: 0.0
- Sweet [6]: 0.8
- Umami [6]: 2.5
- Umami/brothy [6]: 1.0
- Atringent [7]: 0.0
- Bitter [7]: 0.0
- Metallic [7]: 0.0
- Mineral/Flinty [7]: 0.8
- Numbing [7]: 0.0
- Salt [7]: 3.0
- Sour [7]: 0.0
- Sweet [7]: 0.1
- Umami [7]: 1.3
- Umami/brothy [7]: 0.2
- Atringent [8]: 0.0
- Bitter [8]: 0.0
- Metallic [8]: 0.0
- Mineral/Flinty [8]: 0.0
- Numbing [8]: 0.0
- Salt [8]: 2.5
- Sour [8]: 0.0
- Sweet [8]: 0.0
- Umami [8]: 0.0
- Umami/brothy [8]: 0.0
- Atringent [9]: 0.0
- Bitter [9]: 0.0
- Metallic [9]: 0.8
- Mineral/Flinty [9]: 1.5
- Numbing [9]: 0.0
- Salt [9]: 4.5
- Sour [9]: 0.0
- Sweet [9]: 1.0
- Umami [9]: 3.0
- Umami/brothy [9]: 1.0
- Atringent [10]: 0.0
- Bitter [10]: 0.0
- Metallic [10]: 0.1
- Mineral/Flinty [10]: 0.9
- Numbing [10]: 0.0
- Salt [10]: 2.8
- Sour [10]: 0.0
- Sweet [10]: 0.2
- Umami [10]: 1.6
- Umami/brothy [10]: 0.5
- Atringent [11]: 0.0
- Bitter [11]: 0.0
- Metallic [11]: 0.0
- Mineral/Flinty [11]: 0.0
- Numbing [11]: 0.0
- Salt [11]: 1.5
- Sour [11]: 0.0
- Sweet [11]: 0.0
- Umami [11]: 0.0
- Umami/brothy [11]: 0.0
